Drawing on US9458172B2, “Pyridinyl and pyrimidinyl sulfoxide and sulfone derivatives” (priority 2012, dated 2016), this text covers IC50 for 21 molecules.

SMILES strings stand for the structures. Like-named read-outs stand apart in the source and are kept apart here.

One experiment has as its target NAMPT (Homo sapiens (Human), UniProt P43490). As to the kind of experiment: Biochemical Inhibition Assay (NAMPT enzymatic reaction, NMN quantified by mass spectrometry). The following applies: 33 nM recombinant His-tagged NAMPT, 1 μM NAM, 30 min at rt. An outline of the steps:
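His-tagged human NAMPT from E. coli preincubated 15 min at rt with compound in 50 mM Hepes pH 7.5, 50 mM NaCl, 5 mM MgCl2, 1 mM THP, then reacted 30 min at rt with 1 μM NAM, […] PRPP, 2.5 mM ATP. NMN quantified by RapidFire mass spectrometry, normalized to L-Cystathionine, background subtracted.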

For a further experiment, the system named is A2780 cells. As to the kind of experiment: In-Vitro Cell Proliferation Assay (SRB).
Where [1] appears, read: Homo sapiens, A2780, 72 h, read-out: Cell Proliferation (IC50).
[2] abbreviates: Homo sapiens, A2780, 72 h, read-out: Cell Proliferation (IC50), A2780 cells, 72 h, sulforhodamine B.

Sequence of NAMPT (P43490 whole entry): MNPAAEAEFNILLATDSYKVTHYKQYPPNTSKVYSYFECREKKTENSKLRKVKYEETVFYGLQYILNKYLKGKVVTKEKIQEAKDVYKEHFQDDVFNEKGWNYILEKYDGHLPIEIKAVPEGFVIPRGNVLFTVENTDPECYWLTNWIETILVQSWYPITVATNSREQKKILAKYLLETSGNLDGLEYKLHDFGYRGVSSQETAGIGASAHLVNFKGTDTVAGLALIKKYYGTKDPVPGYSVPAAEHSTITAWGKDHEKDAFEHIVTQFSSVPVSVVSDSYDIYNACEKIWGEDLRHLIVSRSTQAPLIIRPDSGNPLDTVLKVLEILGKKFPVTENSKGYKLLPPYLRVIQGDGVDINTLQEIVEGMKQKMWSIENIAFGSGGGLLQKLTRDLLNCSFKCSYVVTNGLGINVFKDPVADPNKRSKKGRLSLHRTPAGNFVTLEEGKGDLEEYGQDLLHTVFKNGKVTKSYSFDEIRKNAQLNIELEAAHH
Experimental for A2780 cells: Assay 2: In-Vitro Cell Proliferation Assay
Assay Method. […] The compounds were then further diluted to 10 OX final concentration in culture media, whereupon 20 μL of each dilution was added to the plated cells with controls (e.g. DMSO and blank) to make a final volume of 200 μL. The final DMSO concentration in each well was 0.1%. The plates were then incubated for 72 h at 37° C. in a 5% CO2 incubator. The number of viable cells was then assessed using sulforhodamine B (SRB) assay. Cells were fixed at 4° C. for 1 h with the addition of 50 μL 30% trichloroacetic acid (TCA) to make a final concentration of 6% TCA. The plates were washed four times with H2O and allowed to dry for at least 1 h, whereupon 100 μL of a 4% SRB in 1% acetic acid solution was added to each well and incubated at rt for at least 30 min. The plates were then washed three times with 1% acetic acid, dried, and treated with 100 μL of 10 mM Tris-Base solution. The plates were then read in a microplate reader at an absorbance of 570 nm. Background was generated on a separate plate with media only.
Determination of IC50 Values. First, the signals from the background plate were averaged, then the background was subtracted from the test plates.
The specificity of the compounds were determined via cell viability assay in the presence of the compound and either NAM or NMN Percent inhibitions were determined using the method given above.

Take `CN1CCN(c2ccc(S(=O)(=O)c3ccc(CNC(=O)c4ccc5nccn5c4)nc3)cn2)CC1` [Example 46, Imidazo[1,2-a]pyridine-6-carboxylic acid {5-[6-(4-methyl-piperazin-1-yl)-pyridine-3-sulfonyl]-pyridin-2-ylmethyl}-amide]: the IC50 is 6.9 nM at NAMPT and 1.6 nM with A2780 cells (setting [1]).
For the molecule `O=C(NCc1ccc(S(=O)(=O)c2ccccc2)cn1)c1cc2ccncc2s1` [Example 186, N-[[5-(benzenesulfonyl)-2-pyridyl]methyl]thieno[2,3-c]pyridine-2-carboxamide], the IC50 at NAMPT amounted to 125 nM; with A2780 cells (setting [2]), 918 nM.
`Cn1cc(S(=O)(=O)c2ccc(CNC(=O)c3cc4ccncc4s3)nc2)cn1` [Example 40, Thieno[2,3-c]pyridine-2-carboxylic acid [5-(1-methyl-1H-pyrazole-4-sulfonyl)-pyridin-2-ylmethyl]-amide]: the IC50 on NAMPT turned out to be 134 nM; in the experiment on A2780 cells (setting [1]) it was 2000 nM.
In the case of `O=C(NCc1ccc(S(=O)(=O)c2cncc(C(F)(F)F)c2)cn1)c1cnc2[nH]ncc2c1` [Example 165, N-[[5-[[5-(trifluoromethyl)-3-pyridyl]sulfonyl]-2-pyridyl]methyl]-1H-pyrazolo[3,4-b]pyridine-5-carboxamide], the IC50 was 217 nM on NAMPT and 64.4 nM with A2780 cells (setting [1]).
Take `O=C(NCc1ccc(S(=O)(=O)c2cnc(N3CCCC3)s2)cn1)c1cc2ccncc2o1` [Example 138, N-[[5-(2-pyrrolidin-1-ylthiazol-5-yl)sulfonyl-2-pyridyl]methyl]furo[2,3-c]pyridine-2-carboxamide]: the IC50 was found to be 9.45 nM at NAMPT and 2.84 nM in the experiment on A2780 cells (setting [1]).
For `CCCC(=O)N1CCC(S(=O)(=O)c2ccc(CNC(=O)N3Cc4ccncc4C3)nc2)CC1` [Example 108, 1,3-Dihydro-pyrrolo[3,4-c]pyridine-2-carboxylic acid [5-(1-butyryl-piperidine-4-sulfonyl)-pyridin-2-ylmethyl]-amide], in that order: 27.7 nM and 358 nM.
Turning to `O=C(NCc1ccc(S(=O)(=O)C2CCN(C3COC3)CC2)cn1)c1cc2ccncc2s1` [Example 56, Thieno[2,3-c]pyridine-2-carboxylic acid [5-(1-oxetan-3-yl-piperidine-4-sulfonyl)-pyridin-2-ylmethyl]-amide], the results for the IC50 at NAMPT and in the experiment with A2780 cells (setting [1]) were 25.9 nM and 15.1 nM, respectively.
For `CN(C)c1ncc(S(=O)(=O)c2ccc(CNC(=O)c3cc4ccncc4s3)nc2)s1` [Example 75, Thieno[2,3-c]pyridine-2-carboxylic acid [5-(2-dimethylamino-thiazole-5-sulfonyl)-pyridin-2-ylmethyl]-amide], in that order: 2.2 nM and 0.8 nM.
For `N#Cc1cccc(S(=O)(=O)c2ccc(CNC(=O)c3cc4ccncc4o3)nc2)c1` [Example 151, N-[[5-(3-cyanophenyl)sulfonyl-2-pyridyl]methyl]furo[2,3-c]pyridine-2-carboxamide], in that order: 55.2 nM and 54.6 nM.
`CC(C)n1cc(S(=O)(=O)c2ccc(CNC(=O)N3Cc4ccncc4C3)nc2)cn1` [Example 80, 1,3-Dihydro-pyrrolo[3,4-c]pyridine-2-carboxylic acid [5-(1-isopropyl-1H-pyrazole-4-sulfonyl)-pyridin-2-ylmethyl]-amide]: the values for the IC50 at NAMPT and in the experiment on A2780 cells (setting [1]) were 22.7 nM and 83.2 nM, respectively.
Take `COc1ccc(S(=O)(=O)c2ccc(CNC(=O)c3cc4ccncc4o3)nc2)cc1OC` [Example 66, Furo[2,3-c]pyridine-2-carboxylic acid [5-(3,4-dimethoxy-benzenesulfonyl)-pyridin-2-ylmethyl]-amide]: the IC50 on NAMPT and with A2780 cells (setting [1]) was 2.8 nM throughout.
As for `CN1CCN(c2ccc(S(=O)(=O)c3ccc(CNC(=O)c4cnc5nccn5c4)nc3)cc2)CC1` [Example 48, Imidazo[1,2-a]pyrimidine-6-carboxylic acid {5-[4-(4-methyl-piperazin-1-yl)-benzenesulfonyl]-pyridin-2-ylmethyl)-amide], the IC50 at NAMPT was determined as 2.3 nM; in the experiment with A2780 cells (setting [1]), 8.5 nM.
Consider `O=C(NCc1ccc(S(=O)(=O)c2cncc(C(F)(F)F)c2)cn1)N1Cc2ccncc2C1` [Example 170, N-[[5-[[5-(trifluoromethyl)-3-pyridyl]sulfonyl]-2-pyridyl]methyl]-1,3-dihydropyrrolo[3,4-c]pyridine-2-carboxamide], for which the IC50 stood at 49.1 nM on NAMPT and 25.4 nM in the experiment with A2780 cells (setting [1]).
In the case of `O=C(NCc1ccc(S(=O)(=O)c2cccc(F)c2)cn1)N1Cc2ccncc2C1` [Example 100, 1,3-Dihydro-pyrrolo[3,4-c]pyridine-2-carboxylic acid [5-(3-fluoro-benzenesulfonyl)-pyridin-2-ylmethyl]-amide], the IC50 at NAMPT was 11.1 nM; in the experiment with A2780 cells (setting [1]), 76.6 nM.
On the same counts, the results for `O=C(NCc1ccc(S(=O)(=O)C2CCN(C3CCOCC3)CC2)cn1)c1cnc2[nH]ncc2c1` [Example 162, N-[[5-[(1-tetrahydropyran-4-yl-4-piperidyl)sulfonyl]-2-pyridyl]methyl]-1H-pyrazolo[3,4-b]pyridine-5-carboxamide] are 1830 nM and 295 nM.
Take `O=C(NCc1ccc([S+]([O-])c2cc(F)cc(F)c2)cn1)c1ccc2nccn2c1` (racemic) [Example 58, Imidazo[1,2-a]pyridine-6-carboxylic acid [5-(3,5-difluoro-benzenesulfinyl)-pyridin-2-ylmethyl]-amide (racemic)]: the IC50 on NAMPT stood at 407 nM; in the experiment on A2780 cells (read-out: Cell Proliferation (IC50), A2780 cells, 72 h, sulforhodamine B), 959 nM.
As to `O=C(NCc1ccc([S+]([O-])C2CCN(CC(F)(F)F)CC2)cn1)c1ccc2nccn2c1` (stereo not drawn) [Example 173, N-[[5-[[1-(2,2,2-trifluoroethyl)-4-piperidyl]sulfinyl]-2-pyridyl]methyl]imidazo[1,2-a]pyridine-6-carboxamide], the IC50 at NAMPT turned out to be 202 nM; in the experiment with A2780 cells (setting [1]), 63.1 nM.
For `O=C(NCc1ccc(S(=O)(=O)c2cccc(C(F)(F)F)c2)cn1)c1cnc2nccn2c1` [Example 18, Imidazo[1,2-a]pyrimidine-6-carboxylic acid (5-(3-trifluoromethyl-benzenesulfonyl)-pyridin-2-ylmethyl]-amide], in that order: 4.7 nM and 11.7 nM.
With `O=C(NCc1ccc(S(=O)(=O)C2CCN(C3CCOCC3)CC2)cn1)N1Cc2ccncc2C1` [Example 119, N-[[5-[(1-tetrahydropyran-4 yl-4-piperidyl)sulfonyl]-2-pyridyl]methyl]-1,3-dihydropyrrolo[3,4-c]pyridine-2-carboxamide], the IC50 at NAMPT worked out at 37.5 nM; in the experiment on A2780 cells (setting [2]), 14.5 nM.
Consider `CC(C)CN1CCC([S+]([O-])c2ccc(CNC(=O)c3cc4ccncc4o3)nc2)CC1` (racemic) [Example 102, Furo[2,3-c]pyridine-2-carboxylic acid [5-(1-isobutyl-piperidine-4-sulfinyl)-pyridin-2-ylmethyl]-amide (racemic)], for which the figures for the IC50 at NAMPT and with A2780 cells (setting [1]) were 69.3 nM and 25.6 nM, respectively.
On the same counts, the results for `Nc1ccc(S(=O)(=O)c2ccc(CNC(=O)c3cc4ccncc4o3)nc2)cn1` [Example 110, N-[[5-[(6-amino-3-pyridyl)sulfonyl]-2-pyridyl]methyl]furo[2,3-c]pyridine-2-carboxamide] are 13.3 nM and 25.9 nM.
